The target in this assay is T1, APOL1 (Homo sapiens, UniProt O14791).
T1 sequence (O14791 1-398 S342G/I384M): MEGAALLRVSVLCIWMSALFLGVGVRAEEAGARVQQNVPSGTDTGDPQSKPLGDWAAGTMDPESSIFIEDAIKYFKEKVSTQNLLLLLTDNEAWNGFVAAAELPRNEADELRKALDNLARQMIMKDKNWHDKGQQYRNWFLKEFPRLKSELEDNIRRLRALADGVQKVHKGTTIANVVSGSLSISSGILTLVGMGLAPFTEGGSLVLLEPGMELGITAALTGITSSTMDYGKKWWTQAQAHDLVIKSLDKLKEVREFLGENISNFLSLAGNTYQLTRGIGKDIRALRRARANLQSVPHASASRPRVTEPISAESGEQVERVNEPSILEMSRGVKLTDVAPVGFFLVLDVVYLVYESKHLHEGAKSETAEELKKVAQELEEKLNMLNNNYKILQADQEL
Briefly: MultiTox-Fluor Multiplex Cytotoxicity Assay in tet-inducible APOL1 T-REx-HEK293 cells (cell rescue, ratio of dead to live cells). The format is cell-based. As to conditions: tet-inducible transgenic APOL1 T-REx-HEK293 cell lines, 50 ng/mL tet, 24 hours; read-out: IP50 (i.e., IC50 for cell proliferation). In a few lines:
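T-REx-HEK293 cells with tet-inducible APOL1 were treated with compound (10 μM top, 10-point 3-fold dilution, duplicate) plus 50 ng/mL tetracycline for 24 h at 37° C, in DMEM with 2% tet-free FBS. MultiTox-Fluor protease signals gave a dead/live ratio, normalized to no tet (100% viability) and tet alone (0%).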

The structures appear in SMILES notation.

For `CCc1cc2c(s1)CCO[C@@]21CCN(Cc2cn(CC(O)(CO)CO)nn2)[C@@H](C)C1` [Compound 89], the IC50 was less than 100 nM.
The result for `CCc1cc2c(s1)CCO[C@@]21CCN(Cc2cn(CC(=O)N3CCOCC3)nn2)[C@@H](C)C1` [Compound 90] reads 100 to 500 nM.
The same measure for `CCc1cc2c(s1)CCOC21CCN(Cc2cn(CC(O)CS(C)(=O)=O)nn2)C(C)C1` (stereo not drawn) [Compound 91]: less than 100 nM.
The result for `CCc1cc2c(s1)CCOC21CCN(Cc2cn(CC(c3cccnc3)N3CCOCC3)nn2)C(C)C1` (stereo not drawn) [Compound 92] reads 500 to 1000 nM.
On to `CCc1cc2c(s1)CCO[C@@]21CCN(Cc2cn(CC(C)(O)c3ccccc3)nn2)[C@@H](C)C1` (stereo partly drawn) [Compound 93], for which the IC50 lay in the range of 500 to 1000 nM.
The result for `CCc1cc2c(s1)CCO[C@@]21CCN(Cc2cn(CC3(COC)CCOCC3)nn2)[C@@H](C)C1` [Compound 94] reads 100 to 500 nM; that for `CCc1cc2c(s1)CCO[C@@]21CCN(Cc2cn(CC3COCCN3)nn2)[C@@H](C)C1` (stereo partly drawn) [Compound 95], less than 100 nM.
The same measure for `CCc1cc2c(s1)CCO[C@@]21CCN(Cc2cn(CC3CS(=O)(=O)CCO3)nn2)[C@@H](C)C1` (stereo partly drawn) [Compound 96]: less than 100 nM; for `CCc1cc2c(s1)CCO[C@@]21CCN(Cc2cn(CC(CC)(CC)OC)nn2)[C@@H](C)C1` [Compound 97]: less than 100 nM.
Regarding `CCc1cc2c(s1)CCO[C@@]21CCN(Cc2cn(CC(C)(C)OCCO)nn2)[C@@H](C)C1` [Compound 98], the IC50 was 100 to 500 nM.
The same measure for `CCc1cc2c(s1)CCO[C@@]21CCN(Cc2cn(CC(O)CN3CCCC3=O)nn2)[C@@H](C)C1` (stereo partly drawn) [Compound 99]: less than 100 nM; for `CCc1cc2c(s1)CCO[C@@]21CCN(Cc2cn(CC(C)(C)C3CCOCC3)nn2)[C@@H](C)C1` [Compound 100]: 100 to 500 nM; for `CCc1cc2c(s1)CCOC21CCN(Cc2cn(CC(C)(CO)COC)nn2)C(C)C1` (stereo not drawn) [Compound 101]: 100 to 500 nM.
In the case of `CCc1cc2c(s1)CCOC21CCN(Cc2cn(CC3(C)COCCO3)nn2)C(C)C1` (stereo not drawn) [Compound 102], the IC50 was less than 100 nM.
Take `CCc1cc2c(s1)CCO[C@@]21CCN(Cc2cn(CC3(C4(O)CCOCC4)CC3)nn2)[C@@H](C)C1` [Compound 103]: the IC50 fell in the range of 100 to 500 nM.
The same measure for `CCc1cc2c(s1)CCO[C@@]21CCN(Cc2cn(CC3(OCCO)CCC3)nn2)[C@@H](C)C1` [Compound 104]: 100 to 500 nM.
The result for `CCc1cc2c(s1)CCO[C@@]21CCN(Cc2cn(CC3(C4CCOCC4)CC3)nn2)[C@@H](C)C1` [Compound 105] reads 500 to 1000 nM.
As to `CCc1cc2c(s1)CCO[C@@]21CCN(Cc2cn(CC3(CO)CCOC3)nn2)[C@@H](C)C1` (stereo partly drawn) [Compound 106], the IC50 fell in the range of 100 to 500 nM.
The same measure for `CCc1cc2c(s1)CCOC21CCN(Cc2cn(CC(CO)C(C)C)nn2)C(C)C1` (stereo not drawn) [Compound 107]: less than 100 nM.
Take `CCc1cc2c(s1)CCO[C@@]21CCN(Cc2cn(CC(C)COC)nn2)[C@@H](C)C1` (stereo partly drawn) [Compound 108]: the IC50 is 100 to 500 nM.
The result for `CCc1cc2c(s1)CCO[C@@]21CCN(Cc2cn(CC(C)(C)C(C)(C)O)nn2)[C@@H](C)C1` [Compound 109] reads 100 to 500 nM; that for `CCc1cc2c(s1)CCO[C@@]21CCN(Cc2cn(CC(C)(CO)OC)nn2)[C@@H](C)C1` (stereo partly drawn) [Compound 110], 100 to 500 nM.
The result for `CCc1cc2c(s1)CCO[C@@]21CCN(Cc2cn(CC(C)(C)C3(O)CCOCC3)nn2)[C@@H](C)C1` [Compound 111] reads 100 to 500 nM.
The result for `CCc1cc2c(s1)CCO[C@@]21CCN(Cc2cn(CC(O)Cc3ccc(F)cc3)nn2)[C@@H](C)C1` (stereo partly drawn) [Compound 112] reads less than 100 nM; that for `CCc1cc2c(s1)CCO[C@@]21CCN(Cc2cn(C[C@H](O)C(C)(C)C)nn2)[C@@H](C)C1` [Compound 113], less than 100 nM; that for `CCc1cc2c(s1)CCO[C@@]21CCN(Cc2cn(CC3(C)CCOCC3)nn2)[C@@H](C)C1` [Compound 114], 100 to 500 nM.
Consider `CCc1cc2c(s1)CCOC21CCN(Cc2cn(CC(CC)CO)nn2)C(C)C1` (stereo not drawn) [Compound 115], for which the IC50 is less than 100 nM.
The result for `CCc1cc2c(s1)CCOC21CCN(Cc2cn(CC3CC(=O)N(CCOC)C3)nn2)C(C)C1` (stereo not drawn) [Compound 116] reads 100 to 500 nM.
As for `CCc1cc2c(s1)CCOC21CCN(Cc2cn(CC(O)C3CCCO3)nn2)C(C)C1` (stereo not drawn) [Compound 117], the IC50 is less than 100 nM.
The same measure for `CCc1cc2c(s1)CCO[C@@]21CCN(Cc2cn(CC3(C)COC3)nn2)[C@@H](C)C1` [Compound 118]: 100 to 500 nM; for `CCc1cc2c(s1)CCOC21CCN(Cc2cn(CC3(OCCO)CCOC3)nn2)C(C)C1` (stereo not drawn) [Compound 119]: less than 100 nM.
For `CCc1cc2c(s1)CCO[C@@]21CCN(Cc2cn(CC(C)(C)C(C)O)nn2)[C@@H](C)C1` (stereo partly drawn) [Compound 120], the IC50 was 100 to 500 nM.
The same measure for `CCc1cc2c(s1)CCO[C@@]21CCN(Cc2cn(CC(CO)CC3CCOCC3)nn2)[C@@H](C)C1` (stereo partly drawn) [Compound 121]: less than 100 nM.
The same measure for `CCc1cc2c(s1)CCO[C@@]21CCN(Cc2cn(CC(F)(F)C3(O)CCOCC3)nn2)[C@@H](C)C1` [Compound 122]: 100 to 500 nM.
The result for `CCc1cc2c(s1)CCOC21CCN(Cc2cn(CC(O)C(C)(C)O)nn2)C(C)C1` (stereo not drawn) [Compound 123] reads less than 100 nM; that for `CCc1cc2c(s1)CCOC21CCN(Cc2cn(CC(O)C(C)(C)O)nn2)C(C)C1` (stereo not drawn) [Compound 124], less than 100 nM.
`CCc1cc2c(s1)CCOC21CCN(Cc2cn(CC(O)C(C)(C)O)nn2)C(C)C1` (stereo not drawn) [Compound 125]: the IC50 was less than 100 nM.
The same measure for `CCc1cc2c(s1)CCO[C@@]21CCN(Cc2cn(C[C@H]3C[C@@H](O)C3)nn2)[C@@H](C)C1` [Compound 126]: less than 100 nM.
Take `CCc1cc2c(s1)CCO[C@@]21CCN(Cc2cn(C3(CO)CC3)nn2)[C@@H](C)C1` [Compound 127]: the IC50 lay in the range of 500 to 1000 nM.
The result for `CCc1cc2c(s1)CCO[C@@]21CCN(Cc2cn(C3CC(CO)N3)nn2)[C@@H](C)C1` (stereo partly drawn) [Compound 128] reads 100 to 500 nM; that for `CCc1cc2c(s1)CCO[C@@]21CCN(Cc2cn(CCOC)nn2)[C@@H](C)C1` [Compound 129], 100 to 500 nM.
For the compound `CCc1cc2c(s1)CCO[C@@]21CCN(Cc2cn(C(C)COC)nn2)[C@@H](C)C1` (stereo partly drawn) [Compound 130], the IC50 lay in the range of 100 to 500 nM.
Regarding `CCc1cc2c(s1)CCO[C@@]21CCN(Cc2cn(CC3CCOC3)nn2)[C@@H](C)C1` (stereo partly drawn) [Compound 131], the IC50 was in the range of 100 to 500 nM.
The result for `CCc1cc2c(s1)CCO[C@@]21CCN(Cc2cn([C@H]3C[C@@](C)(O)C3)nn2)[C@@H](C)C1` [Compound 132] reads 100 to 500 nM.
The same measure for `CCc1cc2c(s1)CCOC21CCN(Cc2cn(CC(O)CC)nn2)C(C)C1` (stereo not drawn) [Compound 133]: less than 100 nM.
The result for `CCc1cc2c(s1)CCO[C@@]21CCN(Cc2cn(CC(C)(CO)CO)nn2)[C@@H](C)C1` [Compound 134] reads less than 100 nM.
On to `CCc1cc2c(s1)CCO[C@@]21CCN(Cc2cn(CC(C)(C)CO)nn2)[C@@H](C)C1` [Compound 135], for which the IC50 was 100 to 500 nM.
The same measure for `CCc1cc2c(s1)CCO[C@@]21CCN(Cc2cn(CC3COCCO3)nn2)[C@@H](C)C1` (stereo partly drawn) [Compound 136]: less than 100 nM; for `CCc1cc2c(s1)CCOC21CCN(Cc2cn(CC(COC)OC)nn2)C(C)C1` (stereo not drawn) [Compound 137]: less than 100 nM; for `CCc1cc2c(s1)CCOC21CCN(Cc2cn(CC(O)COC)nn2)C(C)C1` (stereo not drawn) [Compound 138]: less than 100 nM.
The result for `CCc1cc2c(s1)CCO[C@@]21CCN(Cc2cn(CC(CO)OC)nn2)[C@@H](C)C1` (stereo partly drawn) [Compound 139] reads less than 100 nM; that for `CCc1cc2c(s1)CCO[C@@]21CCN(Cc2cn(C[C@@H](C)O)nn2)[C@@H](C)C1` [Compound 140], less than 100 nM; that for `CCc1cc2c(s1)CCO[C@@]21CCN(Cc2cn(C[C@H](C)O)nn2)[C@@H](C)C1` [Compound 141], 100 to 500 nM.
The same measure for `CCc1cc2c(s1)CCO[C@@]21CCN(Cc2cn(C[C@H]3C[C@H](O)C3)nn2)[C@@H](C)C1` [Compound 142]: 100 to 500 nM; for `CCc1cc2c(s1)CCOC21CCN(Cc2cn(CC(O)CO)nn2)C(C)C1` (stereo not drawn) [Compound 143]: less than 100 nM; for `CCc1cc2c(s1)CCO[C@@]21CCN(Cc2cn([C@H]3CC[C@@H]3O)nn2)[C@@H](C)C1` [Compound 144]: 100 to 500 nM.
Take `CCc1cc2c(s1)CCO[C@@]21CCN(Cc2cn([C@H]3C[C@@H](OC)C3)nn2)[C@@H](C)C1` [Compound 145]: the IC50 is less than 100 nM.
The same measure for `CCc1cc2c(s1)CCO[C@@]21CCN(Cc2cn(CC3(O)COC3)nn2)[C@@H](C)C1` [Compound 146]: less than 100 nM.
The result for `CCc1cc2c(s1)CCO[C@@]21CCN(Cc2cn(C3(CO)COC3)nn2)[C@@H](C)C1` [Compound 147] reads 500 to 1000 nM; that for `CCc1cc2c(s1)CCOC21CCN(Cc2cn(C(C)CC(N)=O)nn2)C(C)C1` (stereo not drawn) [Compound 148], 100 to 500 nM.
In the case of `CCc1cc2c(s1)CCO[C@@]21CCN(Cc2cn(C(C)(C)C(N)=O)nn2)[C@@H](C)C1` [Compound 149], the IC50 lay within 500 to 1000 nM.
The same measure for `CCc1cc2c(s1)CCO[C@@]21CCN(Cc2cn(CC3(CO)CC3)nn2)[C@@H](C)C1` [Compound 150]: 100 to 500 nM; for `CCc1cc2c(s1)CCO[C@@]21CCN(Cc2cn([C@H]3C[C@H](O)C3)nn2)[C@@H](C)C1` [Compound 151]: less than 100 nM.

The values above are taken from patent US20250171459A1, “2-METHYL-4',5'-DIHYDROSPIRO[PIPERIDINE-4,7'-THIENO[2,3-C]PYRAN] DERIVATIVES AS INHIBITORS OF APOL1 AND METHODS OF USING SAME” (Vertex Pharmaceuticals Incorporated, priority 2022, published 2025).
